{"source": "the NIST ThermoML archive (doi:10.1021/je800701j)", "key": {"[1]": {"settings": "101 kPa, Liquid, Pycnometric method"}, "[2]": {"experiment": "xn = mol fraction of the nth substance listed", "settings": "101 kPa, Liquid, Pycnometric method"}}, "note": "Numbers after ± are expanded uncertainties."}
{"smiles": "CC(=O)[O-].CCn1cc[n+](C)c1", "note": "[1-ethyl-3-methylimidazolium acetate]", "values": [{"measurement": "mass density", "setting": "[1]; 298.1 K", "result": "1102 ± 9", "unit": "kg/m3"}, {"measurement": "mass density", "setting": "[1]; 323.1 K", "result": "1086 ± 9", "unit": "kg/m3"}, {"measurement": "mass density", "setting": "[1]; 348.1 K", "result": "1073 ± 8", "unit": "kg/m3"}, {"measurement": "mass density", "setting": "[1]; 373.1 K", "result": "1059 ± 8", "unit": "kg/m3"}]}
{"smiles": "CCn1cc[n+](C)c1.O=C([O-])C(F)(F)F", "note": "[1-ethyl-3-methylimidazolium trifluoroacetate]", "values": [{"measurement": "mass density", "setting": "[1]; 298.1 K", "result": "1301 ± 10", "unit": "kg/m3"}, {"measurement": "mass density", "setting": "[1]; 323.1 K", "result": "1283 ± 10", "unit": "kg/m3"}, {"measurement": "mass density", "setting": "[1]; 348.1 K", "result": "1264 ± 10", "unit": "kg/m3"}, {"measurement": "mass density", "setting": "[1]; 373.1 K", "result": "1250 ± 10", "unit": "kg/m3"}]}
{"smiles": "CCn1cc[n+](C)c1.O=C([O-])C(F)(F)F", "note": "[1-ethyl-3-methylimidazolium trifluoroacetate] + CC(=O)[O-].CCn1cc[n+](C)c1", "values": [{"measurement": "mass density", "setting": "[2]; 298.1 K, x1 = 0.2464", "result": "1152 ± 9", "unit": "kg/m3"}, {"measurement": "mass density", "setting": "[2]; 298.1 K, x1 = 0.5002", "result": "1204 ± 10", "unit": "kg/m3"}, {"measurement": "mass density", "setting": "[2]; 298.1 K, x1 = 0.7468", "result": "1252 ± 10", "unit": "kg/m3"}, {"measurement": "mass density", "setting": "[2]; 298.1 K, x1 = 1", "result": "1301 ± 10", "unit": "kg/m3"}, {"measurement": "mass density", "setting": "[2]; 323.1 K, x1 = 0.2464", "result": "1136 ± 9", "unit": "kg/m3"}, {"measurement": "mass density", "setting": "[2]; 323.1 K, x1 = 0.5002", "result": "1189 ± 9", "unit": "kg/m3"}, {"measurement": "mass density", "setting": "[2]; 323.1 K, x1 = 0.7468", "result": "1235 ± 10", "unit": "kg/m3"}, {"measurement": "mass density", "setting": "[2]; 323.1 K, x1 = 1", "result": "1283 ± 10", "unit": "kg/m3"}, {"measurement": "mass density", "setting": "[2]; 348.1 K, x1 = 0.2464", "result": "1121 ± 9", "unit": "kg/m3"}, {"measurement": "mass density", "setting": "[2]; 348.1 K, x1 = 0.5002", "result": "1172 ± 9", "unit": "kg/m3"}, {"measurement": "mass density", "setting": "[2]; 348.1 K, x1 = 0.7468", "result": "1217 ± 10", "unit": "kg/m3"}, {"measurement": "mass density", "setting": "[2]; 348.1 K, x1 = 1", "result": "1264 ± 10", "unit": "kg/m3"}, {"measurement": "mass density", "setting": "[2]; 373.1 K, x1 = 0.2464", "result": "1107 ± 9", "unit": "kg/m3"}, {"measurement": "mass density", "setting": "[2]; 373.1 K, x1 = 0.5002", "result": "1157 ± 9", "unit": "kg/m3"}, {"measurement": "mass density", "setting": "[2]; 373.1 K, x1 = 0.7468", "result": "1202 ± 10", "unit": "kg/m3"}, {"measurement": "mass density", "setting": "[2]; 373.1 K, x1 = 1", "result": "1250 ± 10", "unit": "kg/m3"}]}
{"smiles": "CC(=O)[O-].CCn1cc[n+](C)c1", "note": "[1-ethyl-3-methylimidazolium acetate] + CCn1cc[n+](C)c1.O=C([O-])C(F)(F)F", "values": [{"measurement": "mass density", "setting": "[2]; 298.1 K, x2 = 0", "result": "1102 ± 9", "unit": "kg/m3"}, {"measurement": "mass density", "setting": "[2]; 323.1 K, x2 = 0", "result": "1086 ± 9", "unit": "kg/m3"}, {"measurement": "mass density", "setting": "[2]; 348.1 K, x2 = 0", "result": "1073 ± 8", "unit": "kg/m3"}, {"measurement": "mass density", "setting": "[2]; 373.1 K, x2 = 0", "result": "1059 ± 8", "unit": "kg/m3"}]}
